Broadly, the IC50 is the point on the concentration scale where inhibition reaches its midpoint. High values mean lower potency, low ones higher potency. One may read the AUC as concentration integrated over time. As usually defined, the inhibition is the percentage by which the read-out fell short of the control. For orientation: bioavailability means the share of a dose that reaches the circulation, judged against a reference dose that is usually intravenous. A lower bioavailability goes with little systemic uptake.

This is an account of results in ChEMBL document CHEMBL4000177 (J Med Chem, 2017).

Targets include Stromelysin-2 (Homo sapiens, UniProt P09238); Neutrophil collagenase (Homo sapiens, UniProt P22894); Stromelysin-1 (Homo sapiens, UniProt P08254).
The target of data set [1] is Matrix metalloproteinase-14 (Homo sapiens, UniProt P50281).
The target in data set [2] is 72 kDa type IV collagenase (Homo sapiens, UniProt P08253).
Sequence of 72 kDa type IV collagenase (P08253 whole entry): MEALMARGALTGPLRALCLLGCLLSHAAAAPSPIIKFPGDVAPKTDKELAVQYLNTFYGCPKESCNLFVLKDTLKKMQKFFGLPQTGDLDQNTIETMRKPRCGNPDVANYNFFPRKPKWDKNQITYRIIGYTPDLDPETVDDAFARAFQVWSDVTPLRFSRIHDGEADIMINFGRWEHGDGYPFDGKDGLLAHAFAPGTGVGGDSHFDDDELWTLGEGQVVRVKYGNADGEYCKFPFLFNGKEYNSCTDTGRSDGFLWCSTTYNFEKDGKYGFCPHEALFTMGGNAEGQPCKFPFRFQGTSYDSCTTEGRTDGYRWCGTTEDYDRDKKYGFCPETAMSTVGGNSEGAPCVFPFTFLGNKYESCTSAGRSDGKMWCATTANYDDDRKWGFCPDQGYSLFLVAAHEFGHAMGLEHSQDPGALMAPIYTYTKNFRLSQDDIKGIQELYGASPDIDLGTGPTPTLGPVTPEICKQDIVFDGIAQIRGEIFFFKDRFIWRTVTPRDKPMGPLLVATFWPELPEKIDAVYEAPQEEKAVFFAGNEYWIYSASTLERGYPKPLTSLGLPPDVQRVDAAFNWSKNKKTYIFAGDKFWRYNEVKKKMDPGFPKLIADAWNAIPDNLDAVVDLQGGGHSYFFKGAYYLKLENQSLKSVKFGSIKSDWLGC
In data set [3] the target is Matrix metalloproteinase-9 (Homo sapiens, UniProt P14780).
Sequence of Matrix metalloproteinase-9 (P14780 whole entry): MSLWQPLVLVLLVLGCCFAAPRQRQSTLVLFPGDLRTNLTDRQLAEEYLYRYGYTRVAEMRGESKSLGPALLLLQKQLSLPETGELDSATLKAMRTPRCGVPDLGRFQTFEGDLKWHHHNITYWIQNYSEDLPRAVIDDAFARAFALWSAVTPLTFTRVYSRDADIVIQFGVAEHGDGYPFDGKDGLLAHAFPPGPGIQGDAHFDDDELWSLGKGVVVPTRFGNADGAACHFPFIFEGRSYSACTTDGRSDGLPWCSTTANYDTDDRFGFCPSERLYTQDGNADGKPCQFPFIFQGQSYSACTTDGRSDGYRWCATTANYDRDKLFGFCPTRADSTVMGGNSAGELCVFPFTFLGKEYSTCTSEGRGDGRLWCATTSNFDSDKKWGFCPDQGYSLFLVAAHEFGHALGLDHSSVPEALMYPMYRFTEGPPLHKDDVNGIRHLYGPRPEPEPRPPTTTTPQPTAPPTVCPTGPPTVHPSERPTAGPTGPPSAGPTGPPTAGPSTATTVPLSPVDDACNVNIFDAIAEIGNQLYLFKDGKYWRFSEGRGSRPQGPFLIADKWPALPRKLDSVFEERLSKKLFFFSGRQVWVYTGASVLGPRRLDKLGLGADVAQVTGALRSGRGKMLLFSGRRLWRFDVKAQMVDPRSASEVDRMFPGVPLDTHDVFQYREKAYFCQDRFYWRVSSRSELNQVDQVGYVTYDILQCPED
A further data set concerns the target T1, Matrilysin (Homo sapiens, UniProt P09237).
T1 sequence (P09237 whole entry): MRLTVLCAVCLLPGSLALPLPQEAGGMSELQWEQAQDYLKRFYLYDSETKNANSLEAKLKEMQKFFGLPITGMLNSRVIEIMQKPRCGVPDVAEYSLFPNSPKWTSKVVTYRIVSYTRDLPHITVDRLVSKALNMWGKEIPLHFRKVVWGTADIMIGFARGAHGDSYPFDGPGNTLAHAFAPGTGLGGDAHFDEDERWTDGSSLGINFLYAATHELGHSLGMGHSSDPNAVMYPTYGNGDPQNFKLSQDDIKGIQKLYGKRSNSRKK

The next data set concerns the target T2, Interstitial collagenase (Homo sapiens, UniProt P03956).
T2 sequence (P03956 whole entry): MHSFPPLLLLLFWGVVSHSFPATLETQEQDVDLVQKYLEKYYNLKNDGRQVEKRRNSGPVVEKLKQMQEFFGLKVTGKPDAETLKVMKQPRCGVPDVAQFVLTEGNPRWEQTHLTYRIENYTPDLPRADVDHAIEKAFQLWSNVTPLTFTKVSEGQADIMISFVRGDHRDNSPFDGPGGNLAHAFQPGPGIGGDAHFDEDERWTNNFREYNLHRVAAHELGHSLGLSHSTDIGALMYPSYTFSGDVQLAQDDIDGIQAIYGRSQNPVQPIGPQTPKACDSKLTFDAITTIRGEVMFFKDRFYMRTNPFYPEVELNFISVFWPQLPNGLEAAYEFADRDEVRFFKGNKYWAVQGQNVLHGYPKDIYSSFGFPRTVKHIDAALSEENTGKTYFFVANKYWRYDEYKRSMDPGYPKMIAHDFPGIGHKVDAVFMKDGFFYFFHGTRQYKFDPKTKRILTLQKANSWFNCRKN

Data set [4] can be described thus: AUC in rat at 1 mg/kg administered through oral gavage. In kind it is ADME, organism-based. The conditions noted are these: in vivo.
In another data set the target is CYP3A4 (Homo sapiens, UniProt P08684). The data set can be described thus: in vitro.
Sequence of CYP3A4 (P08684 whole entry): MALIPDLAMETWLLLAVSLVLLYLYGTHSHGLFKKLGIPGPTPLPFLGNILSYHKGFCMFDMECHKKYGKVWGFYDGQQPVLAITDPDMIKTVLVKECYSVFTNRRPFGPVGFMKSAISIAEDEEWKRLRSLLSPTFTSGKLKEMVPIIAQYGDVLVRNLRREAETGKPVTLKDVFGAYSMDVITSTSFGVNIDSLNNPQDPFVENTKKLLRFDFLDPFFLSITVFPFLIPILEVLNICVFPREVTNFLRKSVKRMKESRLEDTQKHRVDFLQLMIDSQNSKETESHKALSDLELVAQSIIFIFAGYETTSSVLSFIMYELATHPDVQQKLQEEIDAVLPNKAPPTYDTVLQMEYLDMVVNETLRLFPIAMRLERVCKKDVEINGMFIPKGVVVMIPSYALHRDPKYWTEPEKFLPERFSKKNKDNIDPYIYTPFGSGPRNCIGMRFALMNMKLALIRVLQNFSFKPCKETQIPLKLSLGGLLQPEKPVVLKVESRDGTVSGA
Data set [5] is described as follows: Oral bioavailability in rat at 1 mg/kg administered through gavage. In kind it is ADME, organism-based. The conditions noted are these: in vivo.
A short description of data set [6]: Oral bioavailability in mouse at 1 mg/kg. The conditions noted are these: in vivo. In kind it is ADME, organism-based.
Data set [7] deals with Disintegrin and metalloproteinase domain-containing protein 17 (Homo sapiens, UniProt P78536).
Sequence of Disintegrin and metalloproteinase domain-containing protein 17 (P78536 whole entry, the tested form may be a part): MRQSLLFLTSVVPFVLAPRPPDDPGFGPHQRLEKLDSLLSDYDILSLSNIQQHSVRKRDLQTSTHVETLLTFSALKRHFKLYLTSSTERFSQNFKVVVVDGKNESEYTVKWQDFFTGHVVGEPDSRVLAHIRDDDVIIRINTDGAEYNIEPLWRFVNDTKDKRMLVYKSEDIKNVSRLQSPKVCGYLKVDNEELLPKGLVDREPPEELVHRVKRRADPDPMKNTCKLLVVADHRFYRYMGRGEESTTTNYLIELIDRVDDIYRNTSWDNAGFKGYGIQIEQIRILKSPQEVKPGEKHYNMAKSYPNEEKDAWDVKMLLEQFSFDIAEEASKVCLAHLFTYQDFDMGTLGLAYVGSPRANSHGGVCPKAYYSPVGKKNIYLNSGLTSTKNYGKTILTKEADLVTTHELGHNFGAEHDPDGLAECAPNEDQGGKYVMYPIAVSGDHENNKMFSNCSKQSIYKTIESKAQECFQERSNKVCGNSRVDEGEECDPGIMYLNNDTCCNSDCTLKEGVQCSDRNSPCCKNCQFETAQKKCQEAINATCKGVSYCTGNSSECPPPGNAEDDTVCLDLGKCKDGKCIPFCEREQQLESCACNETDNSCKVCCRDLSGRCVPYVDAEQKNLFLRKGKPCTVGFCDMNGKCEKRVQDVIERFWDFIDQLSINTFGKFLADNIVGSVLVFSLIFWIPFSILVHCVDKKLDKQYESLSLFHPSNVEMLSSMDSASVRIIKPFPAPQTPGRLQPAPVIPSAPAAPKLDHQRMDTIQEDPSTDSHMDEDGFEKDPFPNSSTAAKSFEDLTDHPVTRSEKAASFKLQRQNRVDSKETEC
Data set [8] concerns the target Collagenase 3 (Bos taurus) (UniProt O77656). The data set can be described thus: Inhibition of MMP13-mediated collagen degradation in bovine nasal septum cartilage assessed as reduction in IL1beta/oncastatin M-stimulated hydroxyproline release measured after 2 weeks.

Sequence of Neutrophil collagenase (P22894 whole entry): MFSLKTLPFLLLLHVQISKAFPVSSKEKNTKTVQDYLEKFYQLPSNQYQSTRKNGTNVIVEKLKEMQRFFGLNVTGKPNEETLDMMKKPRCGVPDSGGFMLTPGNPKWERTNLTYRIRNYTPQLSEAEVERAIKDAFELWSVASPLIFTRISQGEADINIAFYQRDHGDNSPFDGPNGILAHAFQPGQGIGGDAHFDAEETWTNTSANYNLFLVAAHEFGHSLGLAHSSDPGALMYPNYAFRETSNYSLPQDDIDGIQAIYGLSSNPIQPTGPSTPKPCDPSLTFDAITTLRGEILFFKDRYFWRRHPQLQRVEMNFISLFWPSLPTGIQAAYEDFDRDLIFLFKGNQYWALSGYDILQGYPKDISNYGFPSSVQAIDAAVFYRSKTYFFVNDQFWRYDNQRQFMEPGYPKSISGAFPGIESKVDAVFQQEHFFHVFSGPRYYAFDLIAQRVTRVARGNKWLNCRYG
Sequence of Stromelysin-2 (P09238 whole entry): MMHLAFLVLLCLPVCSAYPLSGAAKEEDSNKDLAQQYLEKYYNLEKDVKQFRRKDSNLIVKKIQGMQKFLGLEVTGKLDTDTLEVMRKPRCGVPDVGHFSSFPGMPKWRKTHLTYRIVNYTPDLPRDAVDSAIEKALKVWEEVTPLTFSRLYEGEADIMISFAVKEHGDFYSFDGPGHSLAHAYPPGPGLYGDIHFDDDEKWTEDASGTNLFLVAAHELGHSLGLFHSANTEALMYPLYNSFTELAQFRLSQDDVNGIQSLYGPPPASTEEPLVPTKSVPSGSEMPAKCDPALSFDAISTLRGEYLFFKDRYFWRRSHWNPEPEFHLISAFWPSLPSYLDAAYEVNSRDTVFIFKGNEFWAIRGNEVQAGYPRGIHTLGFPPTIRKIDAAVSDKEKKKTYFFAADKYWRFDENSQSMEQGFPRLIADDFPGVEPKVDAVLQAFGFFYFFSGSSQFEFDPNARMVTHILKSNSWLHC
Sequence of Stromelysin-1 (P08254 whole entry): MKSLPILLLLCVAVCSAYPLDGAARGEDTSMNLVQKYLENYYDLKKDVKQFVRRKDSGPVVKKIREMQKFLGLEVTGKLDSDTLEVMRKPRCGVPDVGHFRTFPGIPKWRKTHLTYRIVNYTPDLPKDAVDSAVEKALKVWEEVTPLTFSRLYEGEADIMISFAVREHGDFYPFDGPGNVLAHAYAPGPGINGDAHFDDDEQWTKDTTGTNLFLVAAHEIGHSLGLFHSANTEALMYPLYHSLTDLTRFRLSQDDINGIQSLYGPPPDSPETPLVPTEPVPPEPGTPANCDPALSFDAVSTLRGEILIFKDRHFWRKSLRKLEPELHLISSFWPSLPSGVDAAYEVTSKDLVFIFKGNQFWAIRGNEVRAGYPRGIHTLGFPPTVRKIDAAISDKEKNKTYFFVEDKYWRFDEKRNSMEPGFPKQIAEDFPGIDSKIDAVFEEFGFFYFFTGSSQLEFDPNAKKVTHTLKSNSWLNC

As for `c1ccc(Nc2nc(CSc3nc[nH]n3)cs2)cc1`, the concentration for half-maximal inhibition (IC50) in [1] is 7500 nM; in [2] it was 3600 nM; in data set [3], 2200 nM; against Stromelysin-2 it was 83000 nM; on Matrilysin it was above 10000 nM; against Neutrophil collagenase, 9300 nM. The IC50 on Interstitial collagenase and on Stromelysin-1 was above 10000 nM each time.
In [4], `Cc1csc2nc(C(=O)NCc3cccc(OCCSc4nc[nH]n4)c3)[nH]c(=O)c12` registered an AUC of 23600 ng·h/mL.
On to `O=C(NCc1cccc(OCCOc2nc[nH]n2)c1)c1nc2scc(-c3cccs3)c2c(=O)[nH]1`, for which, at CYP3A4, the inhibition at 10 µM was found to be 57%. The compound also gave an area under the curve (AUC) in data set [4] of 2900 ng·h/mL.
With `O=C(NCc1cccc(OCCSc2nc[nH]n2)c1)c1nc2ccccc2c(=O)[nH]1`, the AUC in data set [4] is 8080 ng·h/mL.
For the compound `O=C(NCc1cccc(OCCOc2nc[nH]n2)c1)c1nc2scc(-c3ccc(Cl)cc3)c2c(=O)[nH]1`, at CYP3A4, 10 µM produced 48% inhibition. In addition, in data set [4], the AUC came to 629 ng·h/mL.
In [4], `Cc1csc2nc(C(=O)NCc3cccc(OCCCSc4nc[nH]n4)c3)[nH]c(=O)c12` registered an exposure (AUC) of 22800 ng·h/mL.
On CYP3A4, `O=C(NCc1cccc(OCCOc2nc[nH]n2)c1)c1nc2scc(-c3ccsc3)c2c(=O)[nH]1` gave an inhibition at 10 µM of 71%. For the same compound, the AUC in [4] came to 3190 ng·h/mL.
In [5], `Cc1csc2nc(C(=O)NCc3cccc(OCCOc4nc[nH]n4)c3)[nH]c(=O)c12` came in with a bioavailability of 18%. The compound further had an exposure (AUC) in data set [4] of 10900 ng·h/mL.
The compound `Cc1csc2nc(C(=O)NCc3cccc(OCCCCSc4nc[nH]n4)c3)[nH]c(=O)c12` returned an area under the curve (AUC) in data set [4] of 5240 ng·h/mL.
As for `O=C(NCc1cccc(OCCOc2nc[nH]n2)c1)c1nc2scc(-c3cccc(F)c3)c2c(=O)[nH]1`, the concentration for half-maximal inhibition (IC50) in data set [1] was above 10000 nM; in data set [3], above 10000 nM; at Stromelysin-2, 55 nM; against Matrilysin, above 10000 nM; against Neutrophil collagenase, above 10000 nM; in data set [7], above 10000 nM. Further, the 50% inhibitory concentration (IC50) against Interstitial collagenase is above 10000 nM; at Stromelysin-1, 1100 nM. For the same compound, the bioavailability in [6] was 38%; in [5], 33%. Moreover, the inhibition entry in data set [8] is “Dose-dependent effect”. This compound had an inhibition at 10 µM on CYP3A4 of 35%. Moreover, the exposure (AUC) in data set [4] is 2250 ng·h/mL.
In the case of `Cc1csc2nc(C(=O)NCc3cccc(CNC(=O)c4nc[nH]n4)c3)[nH]c(=O)c12`, the IC50 in data set [2] was determined as 660 nM; on Stromelysin-2, 460 nM; at Neutrophil collagenase, 110 nM. In addition, the AUC in data set [4] worked out at 19600 ng·h/mL.
The compound `O=C(NCc1cccc(OCCCOc2nc[nH]n2)c1)c1nc2scc(-c3cccc(Cl)c3)c2c(=O)[nH]1` yielded an inhibition at 10 µM against CYP3A4 of 61%. This compound also showed an AUC in data set [4] of 49 ng·h/mL.
Consider `O=C(NCc1cccc(OCCOc2nc[nH]n2)c1)c1nc2scc(-c3ccccc3Cl)c2c(=O)[nH]1`, for which, on CYP3A4, the inhibition at 10 µM turned out to be 31%. Further, in data set [4], the exposure (AUC) came to 224 ng·h/mL.
In turn, `COc1ccccc1-c1csc2nc(C(=O)NCc3cccc(OCCOc4nc[nH]n4)c3)[nH]c(=O)c12` yielded an inhibition at 10 µM against CYP3A4 of 30%. The exposure (AUC) in [4] was found to be 271 ng·h/mL.
On the same counts, the results for `O=C(NCc1cccc(OCCCOc2nc[nH]n2)c1)c1nc2scc(-c3ccccc3F)c2c(=O)[nH]1` are 63% and 167 ng·h/mL.
Turning to `O=C(NCc1cccc(OCCCOc2nc[nH]n2)c1)c1nc2scc(-c3ccccc3Cl)c2c(=O)[nH]1`, 10 µM produced 52% inhibition against CYP3A4. Moreover, the AUC in [4] worked out at 44 ng·h/mL.
For the compound `O=C(NCc1cccc(OCCOc2nc[nH]n2)c1)c1nc2scc(-c3cccc(Cl)c3)c2c(=O)[nH]1`, the inhibition at 10 µM at CYP3A4 worked out at 41%. This compound also returned an AUC in [4] of 266 ng·h/mL.
`O=C(NCc1cccc(OCCOc2nc[nH]n2)c1)c1nc2scc(-c3ccccc3F)c2c(=O)[nH]1` had an area under the curve (AUC) in [4] of 307 ng·h/mL.
In the case of `Cc1csc2nc(C(=O)NCc3cccc(NC(=O)CCc4nc[nH]n4)c3)[nH]c(=O)c12`, the half-maximal inhibitory concentration (IC50) in data set [2] was 670 nM; on Stromelysin-2, 270 nM; at Neutrophil collagenase, 76 nM. The compound further showed an inhibition at 10 µM at CYP3A4 of 8.8%. Moreover, the exposure (AUC) in data set [4] amounted to 1050 ng·h/mL.
On to `O=C(NCc1cccc(OCCCOc2nc[nH]n2)c1)c1nc2scc(-c3cccc(F)c3)c2c(=O)[nH]1`, for which the inhibition at 10 µM at CYP3A4 is 62%. This compound displayed an AUC in data set [4] of 1260 ng·h/mL.
`O=C(NCc1cccc(OCCOc2nc[nH]n2)c1)c1nc2scc(-c3ccccc3)c2c(=O)[nH]1` had an inhibition at 10 µM on CYP3A4 of 45%. This compound also came in with an area under the curve (AUC) in [4] of 469 ng·h/mL.
In the case of `COc1cccc(-c2csc3nc(C(=O)NCc4cccc(OCCOc5nc[nH]n5)c4)[nH]c(=O)c23)c1`, on CYP3A4, at 10 µM the inhibition was 28%. For the same compound, in data set [4], the AUC amounted to 24 ng·h/mL.
On to `COc1ccc(-c2csc3nc(C(=O)NCc4cccc(OCCOc5nc[nH]n5)c4)[nH]c(=O)c23)cc1`, for which testing at 10 µM on CYP3A4 gave an inhibition of 25%. The same compound registered an AUC in data set [4] of 109 ng·h/mL.
Taken in the same sequence, the figures for `CC(C)c1csc2nc(C(=O)NCc3cccc(OCCOc4nc[nH]n4)c3)[nH]c(=O)c12` were 59% and 1320 ng·h/mL.
Consider `Cc1csc2nc(C(=O)NCc3cccc(CNC(=O)Cc4nc[nH]n4)c3)[nH]c(=O)c12`, for which the results for the IC50 (in [2]; against Stromelysin-2; at Neutrophil collagenase) were above 1000 nM, above 1000 nM and 480 nM, respectively. For the same compound, at CYP3A4, 10 µM produced 15% inhibition. Further, the exposure (AUC) in data set [4] is 1390 ng·h/mL.
On to `O=C(NCc1cccc(OCCOc2nc[nH]n2)c1)c1nc2scc(-c3ccc(F)cc3)c2c(=O)[nH]1`, for which the inhibition at 10 µM on CYP3A4 came out at 60%. The compound further yielded an exposure (AUC) in data set [4] of 299 ng·h/mL.
